According to US7393846B2, “Heterocyclic compounds useful for the treatment of inflammatory and allergic disorders” (Glenmark Pharmaceuticals, S.A., priority 2003, dated 2008):
Counter-ions that a name gives are not always drawn. Like-named read-outs stand apart in the source and are kept apart here.

Experiments:
PDE4 enzyme = assay: Inhibition of Phosphodiesterase Enzymes (PDE4), [3H]cAMP hydrolysis assay; type: biochemical; conditions: for IC50: PDE4 inhibition, 1 μM cAMP, 34° C., 20 minutes
Method: Inhibition of Phosphodiesterase Enzymes (PDE4)
In this assay, PDE4 enzyme converts [^3H] cAMP to the corresponding [^3H] 5′-AMP in proportion to the amount of PDE4 present. The [^3H] 5′-AMP then was quantitatively converted to free [^3H] adenosine and phosphate by the action of snake venom 5′-nucleotidase.
The assay was performed with modification of the method of Thompson and Appleman (Biochemistry; 1971; 10; 311-316) and Schwartz and Passoneau (Proc. Natl. Acad. Sci. U.S.A. 1974; 71; 3844-3848), both references incorporated herein by reference in their entirety, at 34° C. In a 200 ul total reaction mixture, the reaction mixture contained 12.5 mM of Tris, 5 mM MgCl2, 1 μM cAMP (cold) and ^3H cAMP (0.1 uCi), (Amersham). […] Drug samples were then added in the reaction mixture (25 μt/tube). The assay was initiated by addition of enzyme mix (75 μl) and the mixture was incubated for 20 minutes at 34° C. The reaction was stopped by boiling the tubes for 2 mins at 100° C. in a water bath. After cooling on ice for 5 minutes and addition of 50 ug/reaction of 5′-nucleotidase snake venom from Crotalus atrox incubation was carried out again for 20 min. at 34° C. The unreacted substrate was separated from (^3H) Adenosine by addition of Dowex AG 1-X8 (Biorad Lab), (400 ul) which was prequilibrated (1:1:1) in water and ethanol. Reaction mixture was then thoroughly mixed, placed on ice for 15 minutes, vortexed and centrifuged at 14,000 r.p.m. for 2 mins. After centrifugation, a sample of the supernatant was taken and added in 24 well optiplates containing Scintillant (1 ml) and mixed well. The samples in the plates were then determined for radioactivity in a Top Counter and the PDE4 activity was estimated. PDE4 enzyme was present in quantities that yield <30% total hydrolysis of substrate (linear assay conditions).
Results were expressed as percent inhibition (IC50) in nM concentrations. The IC50 values were determined from the concentration curves by nonlinear regression analysis.

PDE4 = assay: EC50 of the PDE4 results table (method not given)

IC50 (PDE4 enzyme)	EC50 (PDE4)	melting point	Structure (SMILES)	also measured
1.18 nM	13.6 nM	252 °C	COc1ccc(C(=O)Nc2c(Cl)cncc2Cl)c2c1oc1ccc(NC(C)=O)cc12 [Example 04, N-(3,5-dichloropyrid-4-yl)-4-methoxy-8-acetamido-dibenzo[b,d]furan-1-carboxamide]	–
7.01 nM	14.1 nM	> 300 °C	COc1ccc(C(=O)Nc2c(Cl)cncc2Cl)c2c1oc1ccc(NC(=O)C(F)(F)F)cc12 [Example 14, N-(3,5-dichloropyrid-4-yl)-4-methoxy-8-trifluoroacetamido-dibenzo[b,d]furan-1-carboxamide]	–
15.1 nM	–	274 °C	CCOC(=O)Nc1ccc2oc3c(OC)ccc(C(=O)Nc4c(Cl)cncc4Cl)c3c2c1 [Example 15, N-(3,5-dichloropyrid-4-yl)-4-methoxy-8-ethoxycarboxamido-dibenzo[b,d]furan-1-carboxamide]	–
3.47 nM	19.1 nM	272 °C	COc1ccc(C(=O)Nc2c(Cl)cncc2Cl)c2c1oc1ccc(NC(=O)OCC3CC3)cc12 [Example 18, N-(3,5-dichloropyrid-4-yl)-4-methoxy-8-cyclopropylmethoxycarboxamido-dibenzo[b,d]furan-1-carboxamide]	–
10.3 nM	8.29 nM	> 250 °C	CCN(CC)C(=O)Nc1ccc2oc3c(OC)ccc(C(=O)Nc4c(Cl)cncc4Cl)c3c2c1 [Example 20, N-(3,5-dichloropyrid-4-yl)-4-methoxy-8-N,N-diethylaminocarboxamido-dibenzo[b,d]furan-1-carboxamide]	–
–	–	–	CS(=O)(=O)Nc1ccc2oc3c(OC(F)F)ccc(C(=O)Nc4c(Cl)cncc4Cl)c3c2c1 [Example 31, N-(3,5-dichloropyrid-4-yl)-4-difluoromethoxy-8-methanesulfonamido-dibenzo[b,d]furan-1-carboxamide sodium salt]	IC50 (PDE4 enzyme; sodium salt): 1.43 nM; EC50 (PDE4; sodium salt): 3.46 nM
3.55 nM	14.8 nM	234 °C	CC(=O)Nc1ccc2oc3c(OC(F)F)ccc(C(=O)Nc4c(Cl)cncc4Cl)c3c2c1 [Example 34, N-(3,5-dichloropyrid-4-yl)-4-difluoromethoxy-8-acetamido-dibenzo[b,d]furan-1-carboxamide]	–
4.64 nM	8.44 nM	–	O=C(Nc1c(Cl)cncc1Cl)c1ccc(OC(F)F)c2oc3ccc(NC(=O)C4CC4)cc3c12 [Example 36, N-(3,5-dichloropyrid-4-yl)-4-difluoromethoxy-8-cyclopropylcarboxamido-dibenzo[b,d]furan-1-carboxamide]	–
21.5 nM	> 278 nM	–	CCOC(=O)C(=O)Nc1ccc2oc3c(OC(F)F)ccc(C(=O)Nc4c(Cl)cncc4Cl)c3c2c1 [Example 37, N-(3,5-dichloropyrid-4-yl)-4-difluoromethoxy-8-ethoxycarbonylcarboxamido-dibenzo[b,d]furan-1-carboxamide]	–
–	–	–	O=C(O)C(=O)Nc1ccc2oc3c(OC(F)F)ccc(C(=O)Nc4c(Cl)cncc4Cl)c3c2c1 [Example 39, N-(3,5-dichloropyrid-4-yl)-4-difluoromethoxy-8-hydroxycarbonylcarboxamido-dibenzo[b,d]furan-1-carboxamide disodium salt]	IC50 (PDE4 enzyme; disodium salt): 0.598 nM; EC50 (PDE4; disodium salt): 9.19 nM
22 nM	11.3 nM	–	O=C(Nc1ccc2oc3c(OC(F)F)ccc(C(=O)Nc4c(Cl)cncc4Cl)c3c2c1)c1ccco1 [Example 40, N-(3,5-dichloropyrid-4-yl)-4-difluoromethoxy-8-fur-2-ylcarboxamido-dibenzo[b,d]furan-1-carboxamide]	–
156 nM	–	252 °C	COc1ccc(C(=O)Nc2ccccc2)c2c1oc1ccc(NC(C)=O)cc12 [Example 41, N1-phenyl-4-methoxy-8-acetamido-dibenzo[b,d]furan-1-carboxamide]	–
959 nM	–	285 °C	COc1ccc(NC(=O)c2ccc(OC)c3oc4ccc(NC(C)=O)cc4c23)cc1 [Example 42, N1-(4-methoxyphenyl)-4-methoxy-8-acetamido-dibenzo[b,d]furan-1-carboxamide]	–
–	–	264 to 265 °C	COc1ccc(C(=O)NCc2ccccc2)c2c1oc1ccc(NC(C)=O)cc12 [Example 43, N1-benzyl-4-methoxy-8-acetamido-dibenzo[b,d]furan-1-carboxamide]	percent inhibition (PDE4 enzyme; PDE4 inhibition at 1 uM): 17.93% at 1 uM
1.72 nM	3.93 nM	260 °C	CCNC(=S)Nc1ccc2oc3c(OC)ccc(C(=O)Nc4c(Cl)cncc4Cl)c3c2c1 [Example 44, N-(3,5-dichloropyrid-4-yl)-4-methoxy-8-(ethylaminothiocarboxamido)-dibenzo[b,d]furan-1-carboxamide]	–
0.773 nM	6.37 nM	–	CCCCNC(=S)Nc1ccc2oc3c(OC)ccc(C(=O)Nc4c(Cl)cncc4Cl)c3c2c1 [Example 45, N-(3,5-dichloropyrid-4-yl)-4-methoxy-8-(n-butylaminothiocarboxamido)-dibenzo[b,d]furan-1-carboxamide]	–
134 nM	–	> 250 °C	COc1ccc(C(=O)Nc2cccnc2)c2c1oc1ccc(NC(C)=O)cc12 [Example 46, N1-(pyrid-3-yl)-4-methoxy-8-acetamido-dibenzo[b,d]furan-1-carboxamide]	–
1.67 nM	11.9 nM	–	COc1ccc(C(=O)Nc2c(Cl)c[n+]([O-])cc2Cl)c2c1oc1ccc(NS(C)(=O)=O)cc12 [Example 48, N-(3,5-dichloropyrid-4-yl)-4-methoxy-8-methanesulfonamido-dibenzo[b,d]furan-1-carboxamide-N-oxide]	–
13.2 nM	–	267 to 268 °C	COc1ccc(C(=O)Nc2ccncc2)c2c1oc1ccc(NC(C)=O)cc12 [Example 49, N-(pyrid-4-yl)-4-methoxy-8-acetamido-dibenzo[b,d]furan-1-carboxamide]	–
9.93 nM	147 nM	> 250 °C	CCOC(=O)CNC(=O)Nc1ccc2oc3c(OC)ccc(C(=O)Nc4c(Cl)cncc4Cl)c3c2c1 [Example 50, N-(3,5-dichloropyrid-4-yl)-4-methoxy-8-(2-ethoxy-2-oxo-ethylaminocarbonylamino)-dibenzo[b,d]furan-1-carboxamide]	–
1.98 nM	122 nM	–	COc1ccc(C(=O)Nc2c(Cl)cncc2Cl)c2c1oc1ccc(NC(=O)NCC(=O)O)cc12 [Example 51, N-(3,5-dichloropyrid-4-yl)-4-methoxy-8-(2-hydroxy-2-oxo-ethylaminocarbonylamino)-dibenzo[b,d]furan-1-carboxamide]	–
8.13 nM	821 nM	–	CCOC(=O)CNc1ccc2oc3c(OC)ccc(C(=O)Nc4c(Cl)cncc4Cl)c3c2c1 [Example 52, N-(3,5-dichloropyrid-4-yl)-4-methoxy-8-(2-ethoxy-2-oxo-ethylamino)-dibenzo[b,d]furan-1-carboxamide]	–
1.05 nM	71.5 nM	–	COc1ccc(C(=O)Nc2c(Cl)cncc2Cl)c2c1oc1ccc(NCC(=O)O)cc12 [Example 53, N-(3,5-dichloropyrid-4-yl)-4-methoxy-8-(2-hydroxy-2-oxo-ethylamino)-dibenzo[b,d]furan-1-carboxamide]	–

Structure (SMILES)	IC50 (PDE4 enzyme)	EC50 (PDE4)	melting point	also measured
CS(=O)(=O)Nc1ccc2oc3c(OC(F)F)ccc(C(=O)Nc4c(Cl)cncc4Cl)c3c2c1 [Example 30, N-(3,5-dichloropyrid-4-yl)-4-difluoromethoxy-8-methanesulfonamido-dibenzo[b,d]furan-1-carboxamide]	1.63 nM	3.59 nM	–	–
O=C(O)C(=O)Nc1ccc2oc3c(OC(F)F)ccc(C(=O)Nc4c(Cl)cncc4Cl)c3c2c1 [Example 38, N-(3,5-dichloropyrid-4-yl)-4-difluoromethoxy-8-hydroxycarbonylcarboxamido-dibenzo[b,d]furan-1-carboxamide]	1.41 nM	26.9 nM	–	–
